In patent US20080063613A1, “Syndet Bars Having Ultraviolet Radiation Protection” (priority 2004, published 2008):

Assay: physchem
Text: Log P is a measure of differential solubility of a compound in two solvents. The log ratio of the concentrations of the solute in the solvent is called Log P or the Partition Coefficient. The most well-known of these partition coefficients is based on the solvents Octanol and Water.

## CCCCC(CC)COC(=O)C(C#N)=C(c1ccccc1)c1ccccc1 (stereo not shown) [Octocrylene]
  logP: ~6.9
